Data from patent US20260021120A1, “METHOD FOR TREATING INFLAMMATORY SKIN DISEASE USING 6-DIAZO-5-OXO-L-NORLEUCINE” (Dermato Bio Inc., priority 2019, published 2026).
“Also recorded” adds a separate entry of the source.

Key:
TPA-induced inflammation = TPA-induced inflammation inhibiting experiment (mouse ear); format: in vivo, C57BL/6 female mice; settings: for visual skin condition of the ear area: after 5 days of application, compared to a negative control (FIG. 6); for number of mast cells / penetration of mast cells into lesion: toluidine blue staining, 200× image, DEX 3 mg, CRI 0.6 mg, DON 0.1 mg on ears, vs TPA positive control
Description: For an experiment of inducing and inhibiting inflammation using 12-O-tetradecanoylphorbol-13-acetate (TPA, Sigma), 14 week-old C57BL/6 female mice were purchased from NARA Biotech (Korea) and used. The purchased mice were acclimated for 7 days, and healthy animals were selected and tested. During the experimental period, the mice were raised while maintaining the environment at a temperature of 21 to 25° C., a relative humidity of 45 to 65% and a lighting time of 12 hours, and freely fed feed and drinking water.
First, the acclimated mice with similar characteristics such as a body weight and size were divided into five experimental groups of 3, and separately raised to confirm an anti-inflammation level. Inflammation was induced by first applying 1.0 ug of TPA to each of both ears of a mouse, and after 1 hour, a therapeutic material was applied, which was continued for 5 days. A mouse to which only acetone (Merck), which is a TPA solvent, was applied was set as a negative control (Vehicle), a mouse to which 1.0 ug of TPA dissolved in acetone was applied was set as a positive control and evaluated, and after TPA was applied, mice to which each of 3 mg of dexamethasone (DEX, Sigma), 0.6 mg of crisaborole (CRI, ChemScene) and 0.1 mg of 6-diazo-5-oxo-L-norleucine (DON, Sigma) was applied were set as experimental groups. After applying each material for 5 days by the above-described method, the weight, ear thickness and ear weight of each mouse were measured, and ear tissue was collected and histologically analyzed by hematoxylin & eosin (H&E) staining and toluidine blue staining.
FIG. 8 is a graph obtained by scoring visually evaluated ear lesions, divided into erythema, scaling and a thickness, and in the graph, the severity of symptoms was rated on a 5-point scale (0=none; 1=slight; 2=moderate; 3=marked; and 4=very marked).
Afterward, to confirm the anti-inflammatory effect of DON, the mouse's ear thickness and ear weight were measured and quantified (FIGS. 9A and 9B), and, based on the histological analysis result obtained by toluidine blue staining capable of confirming mast cells, the number of mast cells was measured by comparing three tissue samples per group using a 200× image (FIG. 9C). […] Therefore, it was confirmed that DON can alleviate pruritus symptoms by inhibiting the histamine secretion not only from epithelial cells but also from mast cells, and can also prevent severe dermatitis caused by secondary infection.

[1] = test system: oxazolone-induced atopic dermatitis; experiment: Oxazolone-induced atopic dermatitis inhibiting experiment (mouse ear); format: in vivo, female BALB/c mice
Description: Using five 8-week-old female BALB/c mice per group, an effect of inhibiting oxazolone-induced atopic dermatitis was tested. In the experiment, dermatitis induced on the car of each mouse was treated with a therapeutic candidate, and it was attempted to confirm an effect depending on an administration route of a therapeutic agent through percutaneous application or subcutaneous injection. First, to induce atopic dermatitis in all groups excluding the negative control, 0.35 mg of 4-ethoxymethylene-2-phenyl-2-oxazolin-5-one (oxazolone, OXA) was mixed with 30 μl of acetone, and sensitization was preceded on each of the both ears with the 1% mixture. The same amount of a solvent without OXA was applied for the negative control (vehicle). From 7 days after the initial application of OXA, OXA (0.5%) was additionally applied every two days to induce dermatitis. For treatment groups, dexamethasone (DEX), tacrolimus (TAC), cyclosporine (CYCL), crisaborole (CRI) and DON were used. For percutaneous application, each time OXA was applied, after 1 hour, each of the therapeutic candidates was treated on both ears, and in the administration test via subcutaneous injection, injection was performed 1 hour after OXA treatment, but intermittently performed every two days. As an excipient used in the subcutaneous injection, filtered distilled water was used, and the control was also administered the same amount of sterile water. Finally, on day 22 after the initial OXA application, the experiment was terminated, and the mice were sacrificed and autopsied, ear tissue was collected, and to confirm the morphological structure of the tissue, H&E staining was performed, and to count the number of the infiltrated mast cells, toluidine blue staining was performed.
FIGS. 14A and 14B were obtained by quantifying the total number of cells and the number of mast cells, which are infiltrated into the dermis, from the staining results. (a) The cell numbers were compared using the total number of infiltrated cells in 200 square micrometers (μm^2), and (b) the mast cells infiltrated into the same area were converted into percentage (%) with respect to the total cell number.

IMQ-induced psoriasis = IMQ-induced psoriasis inhibiting experiment (mouse back); format: in vivo, female C57/BL6 mice; settings: 0.05% DON, 100 μl on back
Description: For a psoriasis inhibition experiment using imiquimod (IMQ, Tokyo Chemical Industry, 10747-100 mg), as an experimental animal, female C57/BL6 mice (n=5) were used. First, to induce psoriasis, sensitization was preceded by evenly applying 4 mg IMQ to the completely shaved back of each of the mice in all groups except a negative control at a volume of 100 μl. For the negative control, the same amount of a solvent without IMQ was applied. Psoriasis was induced by applying IMQ a total of five times at 24-hour intervals for 5 days, and for treatment groups, the same site was treated (applied) with 0.05% dexamethasone (DEX) ([…], 100 μl) or 0.05% DON (0.5 mg/ml, 100 μl) dissolved in ethanol one hour after IMQ treatment.
The severity of scaling (FIG. 20) visually evaluated at a lesion site was classified and evaluated by rating, and the severity of the symptom was rated on a 5-point scale (0=none; 1=slight; 2=moderate; 3=marked; and 4=very marked), and plotted on a graph.

NFκB [2] = experiment: TNF-α-induced NFκB activation (luciferase activity) in keratinocytes; format: cell-based; settings: 25 ng/ml TNF-α co-treated 8 hours, 100 μM DON, 5 μM Bay11-7082, vs TNF-α only-treated group
Description: (§1) This example was intended to indirectly confirm the inhibition of chemokine secretion and histone acetylation by confirming the activity of NFκB in skin cells with a dermatitis lesion, and confirming whether the accelerated NFκB activity was inhibited.
(§2) NIH3T3/NFκB-luc cells, which is a cell line capable of confirming the activity of an NFκB transcription factor through luciferase activity were treated with 25 ng/ml of TNF-α to activate an NFκB signal, and as a positive control, 5 μM of a TNF-α inhibitor, Bay11-7082 (Bay), causing an NF-κB signaling inhibitory action was used. NIH3T3/NFκB-luc cells were dispensed at […] in a 96-well plate, and stabilized in an incubator for 24 hours. To confirm the DON efficacy on NFκB, TNF-α and 100 μM DON were co-treated for 8 hours and then lysed, thereby obtaining a cell enzyme solution, and then the cell enzyme solution was reacted with luciferin, and luciferase activity was measured using a luminometer (FIGS. 3 and 4). The difference in the number of cells between treatment groups was corrected with the resulting values of luciferase activity using protein quantification.

NFκB [3] = experiment: TNF-α-induced NFκB activation (luciferase activity) in fibroblasts (NIH3T3/NFκB-luc cells); format: cell-based; settings: 25 ng/ml TNF-α co-treated 8 hours, 100 μM DON, 5 μM Bay11-7082, vs TNF-α only-treated group
Description: as §1, §2

[4] = ear lesion, DON 0.1 mg, 5 days (FIG. 8)

[N-]=[N+]=CC(=O)CC[C@H](N)C(=O)O [DON, 6-diazo-5-oxo-L-norleucine]
thickened skin tissue of the epidermis and dermis (histological analysis) (TPA-induced inflammation; H&E, after 5 days, DON 0.1 mg on ears (FIG. 7)): becomes thinner
thickness of the epithelium (TPA-induced inflammation; TPA-induced inflammation, inflammatory lesion treated with DON (FIG. 1)): significantly reduced
visual skin condition of the ear area (TPA-induced inflammation): showed erythema and scaling
degree of erythema (visual score, 5-point scale) (TPA-induced inflammation; [4]): significantly reduced
degree of scaling (visual score, 5-point scale) (TPA-induced inflammation; [4]): significantly reduced
degree of thickness (visual score, 5-point scale) (TPA-induced inflammation; [4]): significantly reduced
number of mast cells / penetration of mast cells into lesion (TPA-induced inflammation; after 5 days): significantly decreased; also recorded: weakened
weight (g) of ear tissue ([1]; 0.1% (0.0272 mg), ear, percutaneous application (FIG. 12A)): significantly decreased
thickness (mm) of ear tissue ([1]; 0.1% (0.0272 mg), ear, percutaneous application (FIG. 12B)): significantly decreased
visual symptoms of atopic dermatitis (tissue swelling, eczema, deformation of the ear tissue) ([1]; 0.1% (0.0272 mg), ear, percutaneous application, vs OXA group (FIG. 11)): significant skin improvement
number of immune cells introduced into the dermis ([1]; histological analysis, total infiltrated cells in 200 μm^2): significantly reduces; also recorded: small
thickness of the epithelium ([1]; oxazolone-induced inflammation, inflammatory lesion treated with DON (FIG. 2)): significantly reduced
number of mast cells / penetration of mast cells into lesion ([1]; toluidine blue staining, dermis of ear, day 22): significantly reduces; also recorded: weakened
changes in the epithelium of skin ([1]; visual and histological analysis): significantly reduces
skin thickness at the lesion (IMQ-induced psoriasis; 5 days (FIG. 21)): significantly reduced
severity of scaling (visual score, 5-point scale) (IMQ-induced psoriasis; 5 days, vs IMQ positive control (FIG. 20)): significantly decreased
NFκB activity by TNF-α (luciferase activity) (NFκB [2]): reduced; also recorded: inhibited
NFκB activity by TNF-α (luciferase activity) (NFκB [3]): reduced; also recorded: inhibited

Cc1ccc(S(=O)(=O)/C=C/C#N)cc1 [Bay11-7082, reference compound]
NFκB activity by TNF-α (luciferase activity) (NFκB [2]): decreased
NFκB activity by TNF-α (luciferase activity) (NFκB [3]): decreased

N#Cc1ccc(Oc2ccc3c(c2)COB3O)cc1 [CRI, crisaborole, reference compound]
visual skin condition of the ear area (TPA-induced inflammation): showed erythema and scaling
number of mast cells / penetration of mast cells into lesion (TPA-induced inflammation; after 5 days): significantly decreased
